Series [1] addresses T1, Acid-sensing ion channel 3 (Homo sapiens, UniProt Q9UHC3).
T1 sequence (Q9UHC3 whole entry): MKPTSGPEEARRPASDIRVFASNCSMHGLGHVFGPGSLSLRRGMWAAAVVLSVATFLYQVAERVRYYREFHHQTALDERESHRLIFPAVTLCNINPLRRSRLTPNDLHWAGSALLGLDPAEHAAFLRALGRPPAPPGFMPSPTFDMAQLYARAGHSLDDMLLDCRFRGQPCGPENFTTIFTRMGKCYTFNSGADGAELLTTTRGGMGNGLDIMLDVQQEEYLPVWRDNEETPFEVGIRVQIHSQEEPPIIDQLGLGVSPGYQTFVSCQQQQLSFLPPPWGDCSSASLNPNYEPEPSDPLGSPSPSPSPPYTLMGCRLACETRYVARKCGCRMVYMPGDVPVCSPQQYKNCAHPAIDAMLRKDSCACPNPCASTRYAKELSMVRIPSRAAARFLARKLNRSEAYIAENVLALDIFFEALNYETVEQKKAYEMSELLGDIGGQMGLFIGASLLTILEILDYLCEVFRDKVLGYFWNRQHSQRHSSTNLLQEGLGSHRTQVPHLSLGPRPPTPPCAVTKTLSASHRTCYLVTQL
Put plainly: Inhibition of ASIC3 assessed as inhibition of peak current by electrophysiology method.

Series [2] has as its target T2, Acid-sensing ion channel 1 (Homo sapiens, UniProt P78348).
T2 sequence (P78348 whole entry): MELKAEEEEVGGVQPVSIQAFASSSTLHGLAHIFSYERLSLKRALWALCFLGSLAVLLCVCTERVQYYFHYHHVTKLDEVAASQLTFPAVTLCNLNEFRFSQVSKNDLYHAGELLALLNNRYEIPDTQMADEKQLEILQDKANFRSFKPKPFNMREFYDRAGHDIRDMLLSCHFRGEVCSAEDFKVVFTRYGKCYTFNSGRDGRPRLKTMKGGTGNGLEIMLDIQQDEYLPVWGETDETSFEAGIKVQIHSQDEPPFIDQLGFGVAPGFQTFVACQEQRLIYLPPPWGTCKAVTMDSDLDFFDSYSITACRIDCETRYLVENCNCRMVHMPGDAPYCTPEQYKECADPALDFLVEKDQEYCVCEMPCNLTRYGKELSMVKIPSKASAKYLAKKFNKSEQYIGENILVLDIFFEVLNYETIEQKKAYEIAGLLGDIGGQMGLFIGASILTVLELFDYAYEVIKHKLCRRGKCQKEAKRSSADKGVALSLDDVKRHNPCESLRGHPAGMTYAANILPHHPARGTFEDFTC
Put plainly: Inhibition of ASIC1a.

Series [3] concerns Rattus norvegicus. Put plainly: Antihyperalgesic effect in complete Freund's adjuvant-induced Sprague-Dawley rat inflammatory pain model assessed as reversal of mechanical hypersensitivity at 100 mg/kg, po after 30 mins. Also on record: dose 100 mg/kg. It is filed as functional, organism-based.
A short description of series [4]: Plasma concentration in Sprague-Dawley rat at 100 mg/kg, po after 30 mins. It is filed as ADME, organism-based. Details: dose 100 mg/kg, route oral.
The next series deals with Brain. Put plainly: Drug uptake in Sprague-Dawley rat brain at 100 mg/kg, po. The following applies: in vivo, read-out: Drug uptake. Details: dose 100 mg/kg, route oral. It is filed as ADME, organism-based.
The nature of series [5]: Ratio of drug level in brain to plasma in Sprague-Dawley rat at 100 mg/kg, po. It is filed as ADME, organism-based. Details: dose 100 mg/kg, route oral. The following applies: read-out: BPR.
Series [6] is described as follows: Ratio of drug level in brain to plasma in […]. It is filed as ADME. The settings on record: rat, read-out: BPR.
Series [7] concerns Rattus norvegicus. Put plainly: Induction of sedative activity in Sprague-Dawley rat at 100 mg/kg, po. It is filed as organism-based. Also on record: dose 100 mg/kg, route oral. The following applies: in vivo.
Series [8] relates to Rattus norvegicus. Put plainly: Toxicity in Sprague-Dawley rat brain assessed as lethargy at 100 mg/kg, po. It is filed as organism-based. Also on record: dose 100 mg/kg, route oral. The settings on record: in vivo.
Series [9] can be described thus: Inhibition of serotonin receptor.
A short description of series [10]: Inhibition of muscarinic receptor.
Series [11] in a line: Inhibition of adrenergic receptor.
Series [12] is described as follows: Inhibition of dopamine receptor.

Calls of active or inactive are those of the source. The calls are words filed in the database; no cut-off is given here. A value given as a limit tells only on which side of the number the result lay.

As usually defined, the IC50 is the concentration that gives 50% inhibition. Take `CN1CCc2ccc(C#Cc3ccc4c(Cl)c(CN)sc4c3)cc2C1`: the IC50 in series [1] came to 680 nM. Still for that read-out and setting: then `CCN1CCc2ccc(C#Cc3ccc4c(Cl)c(CN)sc4c3)cc2C1`, with 230 nM; and `NCc1sc2cc(C#Cc3cccc4c3CCCC4N3CCCC3)ccc2c1Cl` (stereo unspecified), with 2500 nM. On to `NCc1sc2cc(C#Cc3ccc4c(c3)CNCC4)ccc2c1Cl`, for which the IC50 in series [1] was 220 nM; in series [2], 224 nM. For the same compound, in the series on Rattus norvegicus [3], the result was Active. This compound returned a concentration at 0.5 h in [4] of 3.6 µM. The concentration with Brain worked out at 14 µM. Moreover, the Kp was found to be 6 in series [5] and 15.4 in series [6]. Also, the Activity result in the series on Rattus norvegicus [7] and with Rattus norvegicus [8] was “Toxic” throughout. Turning to `CC1c2cc(C#Cc3ccc4c(Cl)c(CN)sc4c3)ccc2CCN1C` (stereo unspecified), the IC50 in series [1] amounted to 270 nM. Take `CC(C)C1c2cc(C#Cc3ccc4cc(C(=N)N)ccc4c3)ccc2CCN1C` (stereo unspecified): the 50% inhibitory concentration (IC50) was 460 nM in series [1]; less than 10000 nM in [9]; less than 10000 nM in series [10]; less than 10000 nM in [11]; less than 10000 nM in [12]. Further, the Kp in series [6] stood at 2.6. Regarding `NCc1sc2cc(C#Cc3ccccc3)ccc2c1Cl`, the IC50 in series [1] turned out to be 2800 nM. For `N=C(N)c1sc2cc(C#Cc3ccccc3)ccc2c1Cl`, the IC50 in [1] turned out to be 3400 nM.

For `CN(C)C1CCc2c(C#Cc3ccc4c(Cl)c(CN)sc4c3)cccc21` (stereo unspecified), in series [1], the concentration for half-maximal inhibition (IC50) is 190 nM. Take `CC(c1cccc(C#Cc2ccc3c(Cl)c(CN)sc3c2)c1)N(C)C` (stereo unspecified): the IC50 in [1] worked out at 4300 nM. `CC(C)N1CCc2ccc(C#Cc3ccc4c(Cl)c(CN)sc4c3)cc2C1`: the half-inhibitory concentration (IC50) in [1] was determined as 310 nM. The same measure, in the same setting: then `CC(C)(C)OC(=O)N1CCc2ccc(C#Cc3ccc4c(Cl)c(CN)sc4c3)cc2C1`, with greater than 50000 nM.

On to `NCc1sc2cc(C#Cc3ccc4c(c3)CN(CC(F)(F)F)CC4)ccc2c1Cl`, for which, in [1], the half-inhibitory concentration (IC50) was greater than 50000 nM. As for `CN(C)C1CCCc2c(C#Cc3ccc4c(Cl)c(CN)sc4c3)cccc21` (stereo unspecified), in series [1], the IC50 turned out to be 230 nM.

For the compound `NCc1sc2cc(C#Cc3ccc4c(c3)CN(CC(F)F)CC4)ccc2c1Cl`, in series [1], the IC50 amounted to 10200 nM. For the compound `NCc1ccc2cc(C#Cc3ccccc3)ccc2c1`, the half-inhibitory concentration (IC50) in series [1] was 4800 nM. The same measure, in the same setting: then `NCc1sc2cc(C#Cc3ccc4c(c3)CN(Cc3ccccc3)CC4)ccc2c1Cl`, with 17100 nM; and `N=C(N)c1ccc2cc(C#Cc3ccccc3)ccc2c1`, with 6300 nM.

For the origin of these results see ChEMBL document CHEMBL1800000, “Identification of non-amidine inhibitors of acid-sensing ion channel-3 (ASIC3)” (Bioorg Med Chem Lett, 2011).
